In paper PMC8550792, “Evolution of kinase polypharmacology across HSP90 drug discovery” (Cell Chemical Biology, 2021):

Tests used:
Test in all cases: biochemical
Format in all cases: biochemical
[1] = target: T1, 382 unique human kinases (Homo sapiens, UniProt P08581, T992I); conditions: c-MET (T992I), 10 uM; for remaining activity at 10 µM: read-out: % Enzyme Activity (relative to DMSO controls)
T1 construct: purchased Reaction Biology (HotSpot contract assay)

[2] = target: T2, 382 unique human kinases (Homo sapiens, UniProt P07949, V778I); conditions: RET (V778I), [ATP] 10 µM, compound 10 uM; for remaining activity at 10 µM: read-out: % Enzyme Activity (relative to DMSO controls)
T2 construct: purchased Reaction Biology (HotSpot contract assay)

[3] = target: T3, 382 unique human kinases (Homo sapiens, UniProt Q9UL54); conditions: TAOK2/TAO1, [ATP] 30 µM, compound 10 uM; for remaining activity at 10 µM: read-out: % Enzyme Activity (relative to DMSO controls)
T3 construct: purchased Reaction Biology (HotSpot contract assay)
T3 sequence (Q9UL54 1-1235): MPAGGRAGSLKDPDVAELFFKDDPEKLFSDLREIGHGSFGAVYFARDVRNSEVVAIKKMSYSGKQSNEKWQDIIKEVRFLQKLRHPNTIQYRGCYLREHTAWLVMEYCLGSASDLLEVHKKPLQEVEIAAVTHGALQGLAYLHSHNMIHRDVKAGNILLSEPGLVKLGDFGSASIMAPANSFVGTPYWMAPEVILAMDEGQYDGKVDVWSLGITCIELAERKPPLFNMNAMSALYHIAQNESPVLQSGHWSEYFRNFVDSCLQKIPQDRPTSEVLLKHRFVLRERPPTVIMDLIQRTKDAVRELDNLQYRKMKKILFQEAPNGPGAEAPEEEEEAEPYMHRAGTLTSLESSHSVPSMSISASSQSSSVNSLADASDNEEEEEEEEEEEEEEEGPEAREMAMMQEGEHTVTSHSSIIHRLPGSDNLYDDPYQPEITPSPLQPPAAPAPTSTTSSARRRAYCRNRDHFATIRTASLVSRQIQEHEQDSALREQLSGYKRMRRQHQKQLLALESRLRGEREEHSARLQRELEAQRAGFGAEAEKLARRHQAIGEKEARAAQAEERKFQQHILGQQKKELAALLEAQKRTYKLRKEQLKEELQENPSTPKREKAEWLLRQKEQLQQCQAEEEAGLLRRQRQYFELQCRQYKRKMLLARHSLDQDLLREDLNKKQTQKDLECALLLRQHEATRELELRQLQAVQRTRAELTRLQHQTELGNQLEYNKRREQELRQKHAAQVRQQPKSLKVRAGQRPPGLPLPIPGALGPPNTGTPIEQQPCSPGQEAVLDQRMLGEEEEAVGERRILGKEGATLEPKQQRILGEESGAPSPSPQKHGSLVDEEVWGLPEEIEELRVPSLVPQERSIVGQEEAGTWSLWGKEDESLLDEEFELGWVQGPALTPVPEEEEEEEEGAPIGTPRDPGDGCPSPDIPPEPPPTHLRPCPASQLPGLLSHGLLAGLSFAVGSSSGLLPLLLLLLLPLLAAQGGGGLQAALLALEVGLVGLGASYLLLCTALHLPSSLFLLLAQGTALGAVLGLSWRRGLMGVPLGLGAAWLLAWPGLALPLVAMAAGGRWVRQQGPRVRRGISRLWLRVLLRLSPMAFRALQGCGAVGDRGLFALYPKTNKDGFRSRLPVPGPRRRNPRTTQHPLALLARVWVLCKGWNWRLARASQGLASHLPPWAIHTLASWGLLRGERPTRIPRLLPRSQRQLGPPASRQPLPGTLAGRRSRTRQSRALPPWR

[4] = target: T4, 382 unique human kinases (Homo sapiens, UniProt P09769); conditions: FGR, [ATP] 50 µM
T4 construct: purchased Reaction Biology (HotSpot contract assay)

[5] = target: T5, 382 unique human kinases (Homo sapiens, UniProt P43250); conditions: GRK6, 10 uM; for remaining activity at 10 µM: read-out: % Enzyme Activity (relative to DMSO controls)
T5 construct: purchased Reaction Biology (HotSpot contract assay)

[6] = target: T6, 382 unique human kinases (Homo sapiens, UniProt Q9HAZ1); conditions: CLK4, [ATP] 2.5 µM, compound 10 uM; for remaining activity at 10 µM: read-out: % Enzyme Activity (relative to DMSO controls)
T6 construct: purchased Reaction Biology (HotSpot contract assay)

[7] = target: T7, 382 unique human kinases (Homo sapiens, UniProt P10721, T670I); conditions: c-Kit (T670I); 10 uM; read-out: % Enzyme Activity (relative to DMSO controls)
T7 construct: purchased Reaction Biology (HotSpot contract assay)

[8] = target: T8, 382 unique human kinases (Homo sapiens, UniProt P29376); conditions: TYK1/LTK, 10 uM; for remaining activity at 10 µM: read-out: % Enzyme Activity (relative to DMSO controls)
T8 construct: purchased Reaction Biology (HotSpot contract assay)

[9] = target: T9, 382 unique human kinases (Homo sapiens, UniProt Q13188); conditions: kinase MST2/STK3, compound 10 uM; for remaining activity at 10 µM: read-out: % Enzyme Activity (relative to DMSO controls)
T9 construct: purchased Reaction Biology (HotSpot contract assay)
T9 sequence (Q13188 1-491): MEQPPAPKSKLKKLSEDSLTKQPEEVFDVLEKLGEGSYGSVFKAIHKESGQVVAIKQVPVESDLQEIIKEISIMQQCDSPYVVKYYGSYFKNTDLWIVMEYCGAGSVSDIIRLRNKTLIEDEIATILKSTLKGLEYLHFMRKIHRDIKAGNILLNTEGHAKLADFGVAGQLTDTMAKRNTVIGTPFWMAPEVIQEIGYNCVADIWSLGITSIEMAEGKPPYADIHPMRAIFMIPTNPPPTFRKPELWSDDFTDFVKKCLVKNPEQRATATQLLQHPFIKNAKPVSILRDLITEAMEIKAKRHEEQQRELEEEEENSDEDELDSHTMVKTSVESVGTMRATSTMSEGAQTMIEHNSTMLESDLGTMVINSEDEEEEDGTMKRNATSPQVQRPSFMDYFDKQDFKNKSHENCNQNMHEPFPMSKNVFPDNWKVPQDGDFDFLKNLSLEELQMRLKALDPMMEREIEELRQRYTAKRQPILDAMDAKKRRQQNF

[10] = target: T10, 382 unique human kinases (Homo sapiens, UniProt Q04759); conditions: PKCtheta, compound at 10 uM, duplicate values; for remaining activity at 10 µM: read-out: % Enzyme Activity (relative to DMSO controls)
T10 construct: purchased Reaction Biology (HotSpot contract assay)

[11] = target: T11, 382 unique human kinases (Homo sapiens, UniProt P14616); conditions: kinase IRR/INSRR, compound 10 uM; for remaining activity at 10 µM: read-out: % Enzyme Activity (relative to DMSO controls)
T11 construct: purchased Reaction Biology (HotSpot contract assay)

[12] = target: T12, 382 unique human kinases (Homo sapiens, UniProt P31749); conditions: kinase AKT1, compound 10 uM; for remaining activity at 10 µM: read-out: % Enzyme Activity (relative to DMSO controls)
T12 construct: purchased Reaction Biology (HotSpot contract assay)

[13] = target: T13, 382 unique human kinases (Homo sapiens, UniProt Q96RR4); conditions: kinase CAMKK2, compound 10 uM; for remaining activity at 10 µM: read-out: % Enzyme Activity (relative to DMSO controls)
T13 construct: purchased Reaction Biology (HotSpot contract assay)

[14] = target: T14, 382 unique human kinases (Homo sapiens, UniProt P48730); conditions: CK1d, 10 uM; for remaining activity at 10 µM: read-out: % Enzyme Activity (relative to DMSO controls)
T14 construct: purchased Reaction Biology (HotSpot contract assay)

[15] = compound 10 uM, read-out: % Enzyme Activity (relative to DMSO controls)

T11 sequence (P14616 27-1297): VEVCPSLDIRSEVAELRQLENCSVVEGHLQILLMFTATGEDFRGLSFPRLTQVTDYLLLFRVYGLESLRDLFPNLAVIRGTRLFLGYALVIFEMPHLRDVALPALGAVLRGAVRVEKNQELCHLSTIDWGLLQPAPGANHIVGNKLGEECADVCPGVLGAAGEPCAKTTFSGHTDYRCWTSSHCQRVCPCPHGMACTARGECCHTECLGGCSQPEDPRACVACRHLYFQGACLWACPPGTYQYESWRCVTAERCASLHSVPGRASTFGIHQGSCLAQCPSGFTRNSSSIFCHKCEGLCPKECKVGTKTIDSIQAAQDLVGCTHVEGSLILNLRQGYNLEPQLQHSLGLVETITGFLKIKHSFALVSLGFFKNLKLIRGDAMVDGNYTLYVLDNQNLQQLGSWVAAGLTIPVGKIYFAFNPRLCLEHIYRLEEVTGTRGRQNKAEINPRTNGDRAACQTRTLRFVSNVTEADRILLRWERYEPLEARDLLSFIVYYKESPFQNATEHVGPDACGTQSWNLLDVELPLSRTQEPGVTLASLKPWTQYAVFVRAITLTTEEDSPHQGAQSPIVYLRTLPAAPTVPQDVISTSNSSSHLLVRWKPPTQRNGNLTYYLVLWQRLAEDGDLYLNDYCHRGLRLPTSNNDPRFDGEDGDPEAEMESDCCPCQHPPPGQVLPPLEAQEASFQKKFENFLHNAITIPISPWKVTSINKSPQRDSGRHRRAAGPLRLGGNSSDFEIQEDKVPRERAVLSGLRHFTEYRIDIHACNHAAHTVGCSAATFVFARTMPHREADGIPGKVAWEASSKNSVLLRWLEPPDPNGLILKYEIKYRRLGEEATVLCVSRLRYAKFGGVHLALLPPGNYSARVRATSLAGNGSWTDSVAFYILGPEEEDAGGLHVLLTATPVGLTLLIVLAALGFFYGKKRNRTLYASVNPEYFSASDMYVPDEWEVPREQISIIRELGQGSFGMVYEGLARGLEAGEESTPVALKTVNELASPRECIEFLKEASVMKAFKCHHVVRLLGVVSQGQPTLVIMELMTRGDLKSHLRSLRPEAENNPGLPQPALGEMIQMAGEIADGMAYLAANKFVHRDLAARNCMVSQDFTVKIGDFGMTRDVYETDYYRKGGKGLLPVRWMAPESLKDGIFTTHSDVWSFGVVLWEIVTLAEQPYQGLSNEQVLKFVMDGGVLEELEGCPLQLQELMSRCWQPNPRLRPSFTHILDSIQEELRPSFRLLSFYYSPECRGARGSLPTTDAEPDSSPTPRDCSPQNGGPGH
T13 sequence (Q96RR4 whole entry): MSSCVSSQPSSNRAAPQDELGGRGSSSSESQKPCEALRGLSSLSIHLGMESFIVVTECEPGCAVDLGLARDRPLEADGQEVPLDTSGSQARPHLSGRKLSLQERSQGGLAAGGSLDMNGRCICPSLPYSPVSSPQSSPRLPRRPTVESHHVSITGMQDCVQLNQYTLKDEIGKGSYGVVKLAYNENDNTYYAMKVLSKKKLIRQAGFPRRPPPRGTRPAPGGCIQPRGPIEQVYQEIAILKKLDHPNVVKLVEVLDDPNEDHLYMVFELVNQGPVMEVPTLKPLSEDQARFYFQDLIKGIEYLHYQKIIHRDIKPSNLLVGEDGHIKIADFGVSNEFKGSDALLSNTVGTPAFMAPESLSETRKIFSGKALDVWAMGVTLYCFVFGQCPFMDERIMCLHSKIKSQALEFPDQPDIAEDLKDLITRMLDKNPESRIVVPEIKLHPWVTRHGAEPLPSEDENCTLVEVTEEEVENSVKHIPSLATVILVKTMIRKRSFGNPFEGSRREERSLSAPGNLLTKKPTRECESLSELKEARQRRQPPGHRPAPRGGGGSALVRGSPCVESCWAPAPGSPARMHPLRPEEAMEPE
T8 sequence (P29376 17-864): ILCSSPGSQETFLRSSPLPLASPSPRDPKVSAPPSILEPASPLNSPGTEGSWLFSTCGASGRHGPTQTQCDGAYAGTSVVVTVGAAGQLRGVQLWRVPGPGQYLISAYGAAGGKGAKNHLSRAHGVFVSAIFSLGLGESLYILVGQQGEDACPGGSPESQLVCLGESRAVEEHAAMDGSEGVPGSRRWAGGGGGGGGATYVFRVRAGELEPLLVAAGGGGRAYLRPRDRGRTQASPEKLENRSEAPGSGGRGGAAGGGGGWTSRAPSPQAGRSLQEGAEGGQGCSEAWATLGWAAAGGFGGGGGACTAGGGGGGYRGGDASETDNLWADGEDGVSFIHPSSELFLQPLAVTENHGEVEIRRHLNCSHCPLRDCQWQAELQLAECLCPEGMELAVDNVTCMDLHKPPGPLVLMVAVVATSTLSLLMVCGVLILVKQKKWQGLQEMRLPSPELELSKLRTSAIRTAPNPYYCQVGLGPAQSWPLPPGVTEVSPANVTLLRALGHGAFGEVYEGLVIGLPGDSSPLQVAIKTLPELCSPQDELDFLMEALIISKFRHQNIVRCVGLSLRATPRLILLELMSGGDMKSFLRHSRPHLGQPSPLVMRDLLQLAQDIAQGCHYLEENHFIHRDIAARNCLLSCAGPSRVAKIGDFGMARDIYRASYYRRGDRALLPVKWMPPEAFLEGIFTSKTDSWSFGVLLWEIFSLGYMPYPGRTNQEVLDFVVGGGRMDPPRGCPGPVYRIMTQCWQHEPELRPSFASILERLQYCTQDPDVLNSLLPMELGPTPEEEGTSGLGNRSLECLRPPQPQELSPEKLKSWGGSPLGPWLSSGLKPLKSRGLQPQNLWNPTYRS
T6 sequence (Q9HAZ1 whole entry): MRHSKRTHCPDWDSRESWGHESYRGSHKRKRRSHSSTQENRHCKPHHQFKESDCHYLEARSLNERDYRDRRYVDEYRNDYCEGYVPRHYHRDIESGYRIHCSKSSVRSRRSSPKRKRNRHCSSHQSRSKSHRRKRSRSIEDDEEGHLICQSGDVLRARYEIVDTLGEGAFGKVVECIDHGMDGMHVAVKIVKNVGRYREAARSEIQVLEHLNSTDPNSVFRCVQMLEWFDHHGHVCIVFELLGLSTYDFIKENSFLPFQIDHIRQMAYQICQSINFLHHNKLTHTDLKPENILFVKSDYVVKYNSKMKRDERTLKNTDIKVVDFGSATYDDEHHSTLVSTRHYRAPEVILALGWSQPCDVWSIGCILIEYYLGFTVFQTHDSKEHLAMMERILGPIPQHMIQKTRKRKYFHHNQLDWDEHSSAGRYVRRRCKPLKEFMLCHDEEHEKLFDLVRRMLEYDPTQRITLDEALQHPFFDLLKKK
T10 sequence (Q04759 whole entry): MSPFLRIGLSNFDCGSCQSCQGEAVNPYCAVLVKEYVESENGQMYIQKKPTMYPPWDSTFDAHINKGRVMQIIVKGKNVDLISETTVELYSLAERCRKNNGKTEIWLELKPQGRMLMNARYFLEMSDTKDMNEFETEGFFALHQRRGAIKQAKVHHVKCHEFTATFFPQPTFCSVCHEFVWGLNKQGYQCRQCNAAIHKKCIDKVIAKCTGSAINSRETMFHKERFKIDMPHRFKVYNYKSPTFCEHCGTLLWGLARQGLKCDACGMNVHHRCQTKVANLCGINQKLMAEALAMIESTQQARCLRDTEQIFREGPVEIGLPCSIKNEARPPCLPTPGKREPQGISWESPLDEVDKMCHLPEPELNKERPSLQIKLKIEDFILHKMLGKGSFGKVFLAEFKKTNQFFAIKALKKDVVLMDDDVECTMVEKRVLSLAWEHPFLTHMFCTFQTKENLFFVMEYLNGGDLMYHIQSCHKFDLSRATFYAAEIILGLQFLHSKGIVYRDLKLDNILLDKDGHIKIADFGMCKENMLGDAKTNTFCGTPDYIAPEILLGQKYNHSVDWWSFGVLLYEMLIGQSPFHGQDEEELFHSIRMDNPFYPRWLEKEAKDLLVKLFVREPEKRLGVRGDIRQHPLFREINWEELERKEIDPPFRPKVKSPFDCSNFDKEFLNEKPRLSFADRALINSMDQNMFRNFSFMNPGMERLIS
T5 sequence (P43250 whole entry): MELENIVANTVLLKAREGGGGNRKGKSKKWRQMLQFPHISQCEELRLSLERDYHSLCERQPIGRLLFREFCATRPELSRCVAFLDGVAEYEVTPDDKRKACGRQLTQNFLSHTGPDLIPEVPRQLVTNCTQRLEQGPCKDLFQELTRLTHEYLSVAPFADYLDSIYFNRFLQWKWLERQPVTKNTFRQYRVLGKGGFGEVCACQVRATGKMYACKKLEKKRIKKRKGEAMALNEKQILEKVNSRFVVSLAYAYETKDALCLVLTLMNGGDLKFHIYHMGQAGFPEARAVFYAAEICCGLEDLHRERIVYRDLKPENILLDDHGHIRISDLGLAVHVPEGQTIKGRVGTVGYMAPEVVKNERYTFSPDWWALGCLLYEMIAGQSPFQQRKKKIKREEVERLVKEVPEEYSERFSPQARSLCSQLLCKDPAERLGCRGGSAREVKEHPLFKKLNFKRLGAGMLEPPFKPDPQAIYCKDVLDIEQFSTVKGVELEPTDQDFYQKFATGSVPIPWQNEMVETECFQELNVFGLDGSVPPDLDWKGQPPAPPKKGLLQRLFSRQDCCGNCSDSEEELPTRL
T4 sequence (P09769 whole entry): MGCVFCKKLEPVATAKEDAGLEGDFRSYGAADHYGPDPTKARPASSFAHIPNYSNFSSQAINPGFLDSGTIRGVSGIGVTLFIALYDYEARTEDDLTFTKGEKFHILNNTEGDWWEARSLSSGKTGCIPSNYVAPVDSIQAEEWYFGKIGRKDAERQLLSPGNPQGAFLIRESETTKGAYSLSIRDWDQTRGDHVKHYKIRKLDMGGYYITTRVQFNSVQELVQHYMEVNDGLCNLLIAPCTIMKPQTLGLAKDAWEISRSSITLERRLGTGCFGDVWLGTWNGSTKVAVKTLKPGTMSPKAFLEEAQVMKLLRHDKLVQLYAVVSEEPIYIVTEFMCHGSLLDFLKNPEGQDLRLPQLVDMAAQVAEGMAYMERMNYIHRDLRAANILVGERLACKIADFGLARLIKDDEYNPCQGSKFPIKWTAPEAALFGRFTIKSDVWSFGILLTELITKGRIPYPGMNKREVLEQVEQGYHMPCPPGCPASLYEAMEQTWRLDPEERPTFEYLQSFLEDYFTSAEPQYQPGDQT

SMILES	remaining activity at 10 µM [1] [%]	remaining activity at 10 µM [2] [%]	remaining activity at 10 µM [3] [%]	remaining activity at 10 µM [4, 15] [%]	remaining activity at 10 µM [5] [%]	remaining activity at 10 µM [6] [%]	remaining activity at 10 µM [7] [%]	remaining activity at 10 µM [8] [%]	remaining activity at 10 µM [9] [%]	remaining activity at 10 µM [10] [%]	remaining activity at 10 µM [11] [%]	remaining activity at 10 µM [12] [%]	remaining activity at 10 µM [13] [%]	remaining activity at 10 µM [14] [%]	also measured
CCNC(=O)c1noc(-c2cc(C(C)C)c(O)cc2O)c1-c1ccc(CN2CCOCC2)cc1 [Luminespib]	91.3	111	96	34.1	97.2	72.1									% Enzyme Activity (relative to DMSO controls) [1]: 90.73%; % Enzyme Activity (relative to DMSO controls) [2]: 105.36%; % Enzyme Activity (relative to DMSO controls) [3]: 95.89%; % Enzyme Activity (relative to DMSO controls) ([4]; compound 10 uM): 33.14%; % Enzyme Activity (relative to DMSO controls) [5]: 96.43%; % Enzyme Activity (relative to DMSO controls) [6]: 71.69%
CC(C)c1cc(-c2n[nH]c(=O)n2-c2ccc3c(ccn3C)c2)c(O)cc1O [Ganetespib (STA9090)]							67.1	73.6	78.8	148	85.7	84.4	89.7	81.2	
CCNC(=O)c1noc(-c2cc(C(C)C)c(O)cc2O)c1-c1ccc(CN2CCOCC2)cc1 [Luminespib (AUY-922)]							84.5	98.2	93.3	102	102	98.4	110	83.5	% Enzyme Activity (relative to DMSO controls) [8]: 97.76%; % Enzyme Activity (relative to DMSO controls) [9]: 89.89%; % Enzyme Activity (relative to DMSO controls) [10]: 101.70%; % Enzyme Activity (relative to DMSO controls) [11]: 101.61%; % Enzyme Activity (relative to DMSO controls) [12]: 97.59%; % Enzyme Activity (relative to DMSO controls) [13]: 109.01%; % Enzyme Activity (relative to DMSO controls) [14]: 81.12%
CC(C)c1cc(-c2n[nH]c(=O)n2-c2ccc3c(ccn3C)c2)c(O)cc1O [Ganetespib]	95.6	56.4	58.9	14.4	97.2	20.7									remaining activity at 1 µM ([4]; compound 1 uM, read-out: % Enzyme Activity (relative to DMSO controls)): 47.5%
